In patent publication US11407741B2, “Compounds and their use as selective inhibitors of caspase-2” (priority 2017, dated 2022):
Where a SMILES comes first, the peptide text is derived from it. [ ]: non-standard residue; d: D form. The star is where a group is joined. Pro(3S-CH2tBu) = CC(C)(C)C[C@H]1CCN[C@@H]1C(=O)O; Quinaldoyl = O=C(c1ccc2ccccc2n1)*; X1 = c1ncc(CO*)s1

How the values were obtained:
Caspase-3 = molecular target: T1, Caspase-3 (Homo sapiens, UniProt P42574); assay: Caspase-3 inhibition assay for reversible inhibitors (IC50, Ki); type: biochemical; conditions: compared with Ac-VDVAD-CHO
T1 construct: the Caspase-2 and Caspase-3 are human recombinant active enzymes; purchased R&D Systems 707-C3-010/CF
T1 sequence (P42574 29-175 limits assumed): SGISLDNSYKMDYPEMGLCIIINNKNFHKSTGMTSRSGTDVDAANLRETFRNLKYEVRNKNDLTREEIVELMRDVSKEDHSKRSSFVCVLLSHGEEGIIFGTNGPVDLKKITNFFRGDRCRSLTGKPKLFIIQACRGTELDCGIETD
T1 sequence (P42574 176-277 limits assumed): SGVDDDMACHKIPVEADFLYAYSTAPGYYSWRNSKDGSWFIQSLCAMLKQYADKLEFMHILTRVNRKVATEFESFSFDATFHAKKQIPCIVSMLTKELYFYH
Description: (§1) A preliminary step in the characterization of an inhibitor is the determination of its IC50. The IC50 is the necessary concentration of an inhibitor to decrease the enzyme activity by 50% of its maximum and uninhibited value.
(§2) The compound, at different concentrations, is incubated with the enzyme and buffer for 30 minutes at 37° C. to allow formation of the Enzyme-Inhibitor complex. The reaction is initiated by addition of buffer and substrate, and then activity is measured over 15 minutes for the determination of initial velocities.
(§3) The enzyme and the inhibitor (or DMSO as control) are incubated for 30 minutes at 37° C. The complex thus formed is diluted to 100th in the buffer/substrate mixture and then the activity measurement is started over 20 minutes. The initial rate obtained for the DMSO represents the 100% activity and will serve as a reference for the quantification of the residual activity of the enzyme in the presence of the inhibitor.
(§4) The reaction is started over 20 minutes upon addition of the buffer-substrate mixture.
(§5) Initial velocity values in RFU·min^−1 are reduced to Specific Activity (SA)values (pmol/min/μg enzyme) from an AMC standard range (1 RFU→0.02 pmol).
(§6) The evolution of the ratio 1/SA as a function of 1/[S] makes it possible to obtain the so-called double-inverse graph of Lineweaver-Burk from equation 4 (eq.4) where Vmaxapp and KMapp are the parameters which vary according to the type inhibition and as a function of inhibitor concentration. The intersection of the lines obtained for increasing inhibitor concentrations makes it possible to distinguish different types of inhibitors.
A secondary graph, obtained from the values of the slopes of the Lineweaver-Burk plot as a function of the concentration of inhibitor, makes it possible to obtain the value of the Ki. Its value is given by the abscissa point at the origin. […]

Casp-2 = molecular target: T2, Casp-2 (Homo sapiens, UniProt P42575); assay: Caspase-2 inhibition assay for reversible inhibitors (IC50, Ki, dilution method); type: biochemical
T2 construct: the Caspase-2 and Caspase-3 are human recombinant active enzymes; purchased Enzo Life ALX-201-057-U100
T2 sequence (P42575 170-325 limits assumed): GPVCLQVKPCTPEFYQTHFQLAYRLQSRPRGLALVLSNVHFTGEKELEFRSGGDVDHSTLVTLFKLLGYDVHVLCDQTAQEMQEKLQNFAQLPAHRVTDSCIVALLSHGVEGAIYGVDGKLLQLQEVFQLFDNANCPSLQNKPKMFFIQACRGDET
T2 sequence (P42575 348-452 limits assumed): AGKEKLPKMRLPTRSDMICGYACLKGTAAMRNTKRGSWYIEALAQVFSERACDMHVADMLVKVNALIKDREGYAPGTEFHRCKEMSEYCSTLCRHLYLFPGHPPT
Description: as §1, §2, §3, §4, §5, §6
A secondary graph, obtained from the values of the slopes of the Lineweaver-Burk plot as a function of the concentration of inhibitor, makes it possible to obtain the value of the Ki. Its value is given by the abscissa point at the origin.
The initial velocity V0 is expressed from equation 8 (eq.8), where Vmax is the maximum reaction rate (reached when the enzyme is saturated with substrate), [S] the substrate concentration, KM is the Michaelis-Menten constant (substrate concentration corresponding to Vmax/2), Ki is the dissociation constant which accounts for the affinity of the inhibitor for the enzyme.

CC(C)[C@H](NC(=O)c1ccc2ccccc2n1)C(=O)N[C@@H](CC(=O)O)C(=O)N[C@H](C(=O)N1CC[C@H](CC(C)(C)C)[C@H]1C(=O)N[C@@H](CC(=O)O)C(=O)OCc1cncs1)C(C)C [Compound 3, (S)-4-(((S)-1-((2S,3S)-2-(((S)-3-carboxy-1-oxo-1-(thiazol-5 - ylmethoxy)propan-2-yl)carbamoyl)-3-neopenthylpyrrolidin-1-yl)-3-methyl-1-oxobutan-2-yl)amino)-3-((S)-3-methyl-2-(quinoline-2-carboxamido)butanamido)-4-oxobutanoic acid] (Quinaldoyl-VDV[Pro(3S-CH2tBu)]D-X1)
potency on Caspase-3 (Caspase-3): considerably less potent on Caspase-3 than Ac-VDVAD-CHO
Selectivity Indexes (KiCasp3/KiCasp2) (Casp-2): >>1000
potency on Casp-2 (Casp-2): still powerful on Casp-2
type of inhibition (reversible), dilution method (Casp-2): reversible inhibitor
Casp-2 selectivity (Casp-2; from IC50 on Casp-2 and Caspase-3): Casp2-selective
